According to PMC5748751, “Study of Structure and Permeability Relationship of Flavonoids in Caco-2 Cells” (Nutrients, 2017):
Read-outs that look alike come from different tables or passages of the source. Marks after values point to notes of the source that are not given here.

Legend:
[1] = Cell viability (MTT) assay of flavonoids in Caco-2 cells; assay type: cell-based; conditions: human
Description: The cytotoxicity of flavonoids and colchicine was evaluated by MTT assay. The cells were grown in 96-well plates at a density of 1 × 10^4 cells/well. After incubation with 40 μM flavonoid for 24 h, the cells were further incubated with an MTT solution (0.5 mg/mL) for 4 h at 37 °C. Finally, after removal of the supernatant, 150 μL dimethyl sulphoxide was added to each well to dissolve crystallized MTT. Absorbance was read at 570 nm with a multiskan spectrum microplate reader (Thermo Labsystems, Waltham, MA, USA). The percentage cell viability relative to that of the control cells was used as the cytotoxicity measure.

[2] = Permeability (bidirectional transport) of flavonoids in Caco-2 cell monolayers; assay type: in vitro ADME; conditions: human; for Papp A→B at 60 min, 40 μM: Caco-2, apical to basolateral; for Papp A→B at 60 min, 40 μM / Papp B→A at 60 min, 40 μM: incubation 60 min, 37 °C, D-Hank's pH 7.4, mean ± SD, n = 3–6; for Papp B→A at 60 min, 40 μM: Caco-2, basolateral to apical; for efflux ratio at 60 min, 40 μM: pH 7.4, Caco-2 monolayer, read-out: Ratiop (ratio of Papp B to A to Papp A to B); for Papp at 1 h, 40 μM: Caco-2 monolayer
Description: Caco-2 cells were cultured in MEM supplemented with 10% FBS, 1% NEAA, penicillin (100 U/mL) and streptomycin (100 μg/mL) in an atmosphere of 5% CO2 and 90% relative humidity at 37 °C. All cells used in this study were between passages 35 and 45 [16].
Caco-2 cells were seeded at a density of about 8 × 10^4 cells/cm^2 on a 12 wells Millicell hanging insert and left to grow for 19–21 days to reach confluence. Culture medium was replaced every other day for 14 days and daily thereafter. The integrity and transport ability of the Caco-2 cells monolayer were examined by measuring the trans-epithelial electrical resistance (TEER) with a Millicell voltammeter (Millicell ERS-2, Merck Millipore, Billerica, MA, USA) and running standard assays using Lucifer yellow CH as paracellular flux marker. […] Differentiation of Caco-2 cells was checked after 4 and 12 days by determining the activity of alkaline phosphatase with an assay kit (Nanjing Jiancheng Bioengineering Institute, Nanjing, China) and after 21 days transmission electron microscopy was performed on Caco-2 monolayer to evaluate differentiation.
The Caco-2 cell monolayer was washed with D-Hank’s buffer (pH 7.4). Then, the flavonoid (40 μM) was added to either the apical (AP, 0.4 mL) or basolateral (BL, 1.95 mL) side, while the receiving chamber contained the corresponding volume of D-Hank’s buffer and incubated for 1 h at 37 °C. Solutions from both AP and BL sides of Caco-2 cell monolayer were collected and immediately frozen, lyophilized and preserved at −80 °C for high performance liquid chromatography (HPLC) analysis. Papp was calculated from Equation (1), where ΔQ/Δt is the rate of the flavonoid on the accepting chamber (μM/s), A is the surface area of the hanging insert (cm^2) and C0 is the initial concentration of tested flavonoid in donating chamber (μM/mL).(1) Papp=ΔQ/Δt/AC0

[3] = Stability of flavonoids in D-Hank's buffer relative to methanol; assay type: physicochemical; conditions: 20 μM flavonoid, HPLC peak area in D-Hank's / peak area in methanol × 100%
Description: The relative stability was expressed as the relative appearance of flavonoids in different solvents. Each flavonoid (20 μM) was dissolved in two different solvents, D-Hank’s and methanol. […] Relative concentration in D-Hank’s (%) = Peak area in D-Hank’s/Peak area in methanol × 100%(3)

Caco-2 cell monolayer [4] = experiment: Cellular accumulation (CA) of flavonoids in Caco-2 cell monolayer; conditions: for Ratioc (ratio of CA B to A to CA A to B): Caco-2 monolayer; for CA A to B: accumulated in cell monolayer after transport apical to basolateral; for CA A to B / CA B to A: 40 μM, 1 h, normalized to cellular protein, mean ± SD, n = 3; for CA B to A: accumulated in cell monolayer after transport basolateral to apical; for CA: both sides (CA A to B and CA B to A)
Description: (§1) After the collection of samples from both AP and BL sides, the hanging insert was rinsed twice with ice-cold D-Hank’s buffer to stop further transport, and lysed with 0.1% Triton X-100 in D-Hank’s buffer then placed in an ultrasonic bath for 15 min. Cell lysates were collected and centrifuged at 7000× g for 10 min. Supernatants were analyzed by BCA kit (Dingguochangsheng Biotechnology, Beijing, China) for protein content. After protein content assay, supernatants were immediately frozen, lyophilized and preserved at −80 °C. The flavonoid concentration in lysis solution was determined by HPLC and normalized with cellular protein content.
(§2) To determine both the permeability and CA of flavonoids in Caco-2 cells, the lyophilized samples were dissolved in running 120 to 200 μL methanol, and centrifuged at 7000× g for 5 min. Aliquot of 20 μL of the supernatant solution was used for assay using Waters e2695 HPLC system (Milford, MA, USA) fitted with an Amethyst C18-H column (250 mm × 4.6 mm i.d., 5 μm; Sepax, Newark, DE, USA). The mobile phase consisted of A (0.01 M phosphoric acid (H3PO4))/B (acetonitrile) with 1.0 mL/min flow rate. […] Peak area measurement was used to obtain standard calibration curves to determine concentration of each flavonoid.

[5] = Recovery (mass balance) of flavonoids during Caco-2 transport assay; assay type: in vitro ADME; conditions: human, Caco-2, mass balance, both sides of insert plus cells
Description: The recovery of the flavonoid glycosides during the transport assays was determined by mass balance and was measured as total amount of the flavonoids on both sides of the insert and in the Caco-2 cells.

Caco-2 cell monolayer [6] = conditions: human, Caco-2, 1 h, 40 μM, pH 7.4
Description: as §1, §2

[7] = pH 7.4, direction not specified (bilateral)
[8] = transport apical to basolateral, read-out: Recovery (A to B, %)
[9] = transport basolateral to apical, read-out: Recovery (B to A, %)
[10] = Caco-2, pH 7.4, as stated in text, direction not specified (bilateral)

efflux ratio at 60 min, 40 μM [2] | Ratioc (ratio of CA B to A to CA A to B) (Caco-2 cell monolayer [4]) | CA A to B (Caco-2 cell monolayer [4]) | CA B to A (Caco-2 cell monolayer [4]) | Relative concentration of flavonoids, D-Hank's/methanol (%) ([3]; listed as chrysin) | Papp at 1 h, 40 μM [2, 10] | CA (Caco-2 cell monolayer [6]) | Structure (SMILES) | viability at 24 h, 40 μM [1] | Papp A→B at 60 min, 40 μM [2] | Papp B→A at 60 min, 40 μM [2] | Relative concentration of flavonoids, D-Hank's/methanol (%) [3] | Papp at 1 h, 40 μM [2, 7] | CA (Caco-2 cell monolayer [4]) | recovery [5, 8] | recovery [5, 9]
1.24 | 2.26 | 3.902 ± 0.251 µmol/g | 8.828 ± 0.213 ^b μmol/g | less than 50% | – | – | O=c1cc(-c2ccccc2)oc2cc(O)cc(O)c12 [Compound 7, Chrysin] | 103 ± 4.94% | 6.78 ± 0.12 ×10⁻⁶ cm/s | 8.41 ± 0.62 ×10⁻⁶ cm/s | 47.63% | – | – | – | –
– | – | – | – | – | – | – | C[C@@H]1O[C@@H](Oc2c(-c3ccc(O)c(O)c3)oc3cc(O)cc(O)c3c2=O)[C@H](O)[C@H](O)[C@H]1O [Compound 16, Quercitrin] | 98.4 ± 3.86% | 4.24 ± 1.25 ×10⁻⁶ cm/s | 5.96 ± 1.2 ×10⁻⁶ cm/s | 116.67% | < 6 ×10⁻⁶ cm/s | not detected | 90.7 ± 8.85% | 76.8 ± 9.36%
1.19 | 1.27 | 1.293 ± 0.086 µmol/g | 1.644 ± 0.300 µmol/g | – | > 20 ×10⁻⁶ cm/s | – | COc1ccc([C@@H]2CC(=O)c3c(O)cc(O)cc3O2)cc1O [Compound 18, Hesperetin] | 100 ± 2.7% | 23.5 ± 0.85 ×10⁻⁶ cm/s | 27.9 ± 2.76 ×10⁻⁶ cm/s | 115.83% | – | – | – | –
1.1 | 2.29 | 1.935 ± 0.305 µmol/g | 4.436 ± 0.299 ^b μmol/g | – | > 30 ×10⁻⁶ cm/s | – | O=C1C[C@@H](c2ccc(O)cc2)Oc2cc(O)cc(O)c21 [Compound 19, Naringenin] | 95.6 ± 3.47% | 32.1 ± 2.98 ×10⁻⁶ cm/s | 35.3 ± 1.16 ×10⁻⁶ cm/s | 113.93% | – | < 5 µmol/g | – | –
– | – | 0.635 ± 0.146 µmol/g | 1.234 ± 0.249 ^a μmol/g | – | > 30 ×10⁻⁶ cm/s | < 5 µmol/g | O=C1C[C@@H](c2ccc(O)cc2)Oc2cc(O)ccc21 [Compound 21, Liquiritigenin] | 101 ± 4.27% | 31 ± 0.8 ×10⁻⁶ cm/s | 37 ± 1.97 ×10⁻⁶ cm/s | – | – | – | – | –

Structure (SMILES) | efflux ratio at 60 min, 40 μM [2] | Ratioc (ratio of CA B to A to CA A to B) (Caco-2 cell monolayer [4]) | CA A to B (Caco-2 cell monolayer [4]) | CA B to A (Caco-2 cell monolayer [4]) | Relative concentration of flavonoids, D-Hank's/methanol (%) ([3]; listed as chrysin) | Papp at 1 h, 40 μM [2, 10] | CA (Caco-2 cell monolayer [6]) | viability at 24 h, 40 μM [1] | Papp A→B at 60 min, 40 μM [2] | Papp B→A at 60 min, 40 μM [2] | Relative concentration of flavonoids, D-Hank's/methanol (%) [3] | Papp at 1 h, 40 μM [2, 7] | CA (Caco-2 cell monolayer [4]) | recovery [5, 8] | recovery [5, 9]
O=c1cc(-c2ccc(O)cc2)oc2cc(O)cc(O)c12 [Compound 6, Apigenin] | 0.99 | 1.72 | 4.415 ± 0.467 µmol/g | 7.610 ± 0.694 ^b μmol/g | – | – | – | 101 ± 4.56% | 17.1 ± 1.72 ×10⁻⁶ cm/s | 16.9 ± 1.02 ×10⁻⁶ cm/s | 41.76% | – | – | – | –
O=c1c(O)c(-c2cc(O)c(O)c(O)c2)oc2cc(O)cc(O)c12 [Compound 14, Myricetin] | 1.5 | – | – | – | – | – | – | 101 ± 3.15% | 0.29 ± 0.01 ×10⁻⁶ cm/s | 0.44 ± 0.01 ×10⁻⁶ cm/s | lower than 40% | < 0.5 ×10⁻⁶ cm/s | not detected | – | –
C[C@@H]1O[C@@H](OC[C@H]2O[C@@H](Oc3c(-c4ccc(O)c(O)c4)oc4cc(O)cc(O)c4c3=O)[C@H](O)[C@@H](O)[C@@H]2O)[C@H](O)[C@H](O)[C@H]1O [Compound 17, Rutin] | – | – | – | – | – | < 6 ×10⁻⁶ cm/s | – | 106 ± 5.48% | 4.04 ± 0.07 ×10⁻⁶ cm/s | 4.28 ± 0.44 ×10⁻⁶ cm/s | 66.82% | – | not detected | 98.2 ± 4.74% | 97 ± 1.67%
O=c1c(-c2ccc(O)cc2)coc2c([C@@H]3O[C@H](CO)[C@@H](O)[C@H](O)[C@H]3O)c(O)ccc12 [Compound 24, Puerarin] | – | – | – | – | – | < 6 ×10⁻⁶ cm/s | – | 105 ± 6.13% | 2.25 ± 0.96 ×10⁻⁶ cm/s | 2.7 ± 0.41 ×10⁻⁶ cm/s | 30.31% | – | not detected | 87.4 ± 3.31% | 85.25 ± 0.6%
